Source: patent publication US12723074B2, “Medicament for treatment and/or prevention of cancer” (TORAY INDUSTRIES, INC., priority 2020, dated 2026)

Key:
[1] = test system: Human breast cancer cells BT474; assay: Antitumor effect in human breast cancer BT474-bearing NOG mice (combination with axitinib); assay type: in vivo; details: day 63 after cancer bearing
Description: Likewise, in vivo antitumor effect in cancer-bearing mouse was evaluated by administering a combination of the anti-CAPRIN-1 antibody (anti-CAPRIN-1 humanized antibody #1) produced in Example 1, and an anti-vascular endothelial growth factor receptor (VEGFR) inhibitor.
Specifically, the antitumor effect of the combination of the anti-CAPRIN-1 antibody and axitinib according to the present invention was studied using NOG mice in which human-derived cancer cells expressing CAPRIN-1 protein were subcutaneously transplanted. Human breast cancer cells BT474 were subcutaneously transplanted at 2×10^7 cells per mouse as a mixture with Matrigel and allowed to grow until a tumor became approximately 100 mm^3 to prepare cancer-bearing mice. Each anti-CAPRIN-1 antibody produced in Example 1 was administered at 10 mg/kg once a week to the tail veins of five cancer-bearing mice described above. To these mice, administration of axitinib was started simultaneously with the initial administration of the anti-CAPRIN-1 antibody, and the administration was performed at 5 or 25 mg/kg twice a day for 9 days and then once a day for 15 days.
For a comparative control group, the same dose of the same anti-CAPRIN-1 antibody as above was administered once a week to cancer-bearing mice. For another comparative control group, axitinib was administered at the same administration intervals and dose as above to other individuals of cancer-bearing mice. Cancer-bearing mice in a non-treatment group were used as negative controls. After the start of administration, the sizes of cancers in the cancer-bearing mice were measured over time using calipers. Tumor volumes were calculated according to a standard method using a calculation expression: (Length of the major axis of the tumor)×(Length of the minor axis of the tumor)^2×0.5.

[2] = test system: gastroesophageal junction cancer or gastric adenocarcinoma; details: RAINBOW trial patients; cited from earlier work
[3] = test system: Human breast cancer cells BT474; assay: Antitumor effect in human breast cancer BT474-bearing NOD-SCID mice (combination with bevacizumab); assay type: in vivo; details: day 41 after cancer bearing, antibody 10 mg/kg once a week, bevacizumab 1.25 mg/kg once a week
Description: Human breast cancer cells BT474 were subcutaneously transplanted at 2×10^7 cells per mouse as a mixture with Matrigel (Sigma) and allowed to grow until a tumor became approximately 100 mm^3 to prepare cancer-bearing mice.
For a comparative control group, the same dose of the same anti-CAPRIN-1 antibody as above was administered once a week to cancer-bearing mice. […] Cancer-bearing mice in a non-treatment group were used as negative controls. After the start of administration, the sizes of cancers in the cancer-bearing mice were measured over time using calipers. Tumor volumes were calculated according to a standard method using a calculation expression: (Length of the major axis of the tumor)×(Length of the minor axis of the tumor)^2×0.5.

[4] = target: T1, CAPRIN-1 on the cell membrane surface of human cancer cells (Homo sapiens, UniProt Q14444); assay: Flow cytometry reactivity with cell membrane surface of human cancer cells expressing CAPRIN-1; assay type: binding; details: human cancer cells BT-474, HT-29, QG56, H1650, NCI-N87, HEC-1-A, 22Rv1, Panc10.5, Hep3B, SKOV3, Caki-2, U-87MG, T24, OE33, OCI-AIM5, Ramos, TGBC14TKB, HT-1080, G-361
T1 construct: endogenous in cells; host or cells: BT-474, HT-29, QG56, H1650, NCI-N87, HEC-1-A, 22Rv1, Panc10.5, Hep3B, SKOV3, Caki-2, U-87MG, T24, OE33, OCI-AIM5, Ramos, TGBC14TKB, HT-1080, G-361
T1 sequence (Q14444 1-709): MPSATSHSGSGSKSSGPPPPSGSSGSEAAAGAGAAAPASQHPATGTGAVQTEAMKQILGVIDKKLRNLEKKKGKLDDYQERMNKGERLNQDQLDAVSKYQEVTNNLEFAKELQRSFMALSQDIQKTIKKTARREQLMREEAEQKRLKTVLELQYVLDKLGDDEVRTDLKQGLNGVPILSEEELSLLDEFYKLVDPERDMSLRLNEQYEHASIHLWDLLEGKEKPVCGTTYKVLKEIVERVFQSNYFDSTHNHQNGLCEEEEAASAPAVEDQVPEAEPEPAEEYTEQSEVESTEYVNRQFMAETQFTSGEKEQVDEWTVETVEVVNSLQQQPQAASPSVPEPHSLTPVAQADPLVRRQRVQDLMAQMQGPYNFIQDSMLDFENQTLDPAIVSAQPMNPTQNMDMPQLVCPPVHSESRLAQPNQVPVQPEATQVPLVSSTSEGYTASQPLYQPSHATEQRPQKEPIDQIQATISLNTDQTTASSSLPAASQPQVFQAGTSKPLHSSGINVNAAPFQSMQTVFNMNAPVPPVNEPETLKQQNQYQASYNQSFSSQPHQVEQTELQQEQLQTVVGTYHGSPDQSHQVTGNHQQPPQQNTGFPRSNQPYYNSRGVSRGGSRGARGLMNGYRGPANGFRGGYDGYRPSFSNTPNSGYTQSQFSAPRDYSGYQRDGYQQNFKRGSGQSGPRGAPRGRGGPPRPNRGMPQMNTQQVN
From the text: Reactivity of each monoclonal antibody with human cancer cells confirmed to express CAPRIN-1 protein on the cell membrane surface was further confirmed by flow cytometry.
(§1) The reactivity of the anti-CAPRIN-1 antibody with cancer cells without permeation treatment of cell membrane was examined by flow cytometry to confirm that a portion of CAPRIN-1 was expressed on the cell membrane surface of cancer cells as shown in Examples given below.

[5] = target: T2, CAPRIN-1 on the cell membrane surface of mouse kidney cancer cells (Renca) and mouse breast cancer cells (4T1) (Mus musculus, UniProt Q60865); assay: Flow cytometry reactivity with cell membrane surface of mouse cancer cells expressing CAPRIN-1; assay type: binding; details: mouse cancer cells Renca and 4T1
T2 construct: endogenous in cells; host or cells: Renca, 4T1
T2 sequence (Q60865 1-707): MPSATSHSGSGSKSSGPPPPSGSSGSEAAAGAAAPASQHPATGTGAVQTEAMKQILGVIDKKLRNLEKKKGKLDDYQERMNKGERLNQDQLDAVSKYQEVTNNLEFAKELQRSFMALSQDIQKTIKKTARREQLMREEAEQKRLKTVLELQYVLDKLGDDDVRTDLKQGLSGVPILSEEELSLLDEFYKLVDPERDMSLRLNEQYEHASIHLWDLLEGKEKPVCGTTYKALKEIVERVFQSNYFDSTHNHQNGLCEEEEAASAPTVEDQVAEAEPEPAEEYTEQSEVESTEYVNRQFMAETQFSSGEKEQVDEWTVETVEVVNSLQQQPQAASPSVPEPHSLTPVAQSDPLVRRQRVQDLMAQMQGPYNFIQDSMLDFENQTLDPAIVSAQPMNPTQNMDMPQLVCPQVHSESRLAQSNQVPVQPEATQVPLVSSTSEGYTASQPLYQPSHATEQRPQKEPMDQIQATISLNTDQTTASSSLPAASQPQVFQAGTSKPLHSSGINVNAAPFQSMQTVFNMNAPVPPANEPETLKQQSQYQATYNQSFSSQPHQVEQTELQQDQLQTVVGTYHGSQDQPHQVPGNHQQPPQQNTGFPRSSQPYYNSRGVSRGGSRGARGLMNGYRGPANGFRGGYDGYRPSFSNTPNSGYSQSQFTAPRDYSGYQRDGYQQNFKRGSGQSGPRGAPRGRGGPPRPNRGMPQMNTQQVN
From the text: as §1

Question: What does the source list for `CNC(=O)c1ccccc1Sc1ccc2c(/C=C/c3ccccn3)n[nH]c2c1` [axitinib]?
Answer: tumor volume when the tumor volume of the negative control was defined as 100% ([1]; axitinib 5 mg/kg (alone or with antibody 10 mg/kg once a week)): 39%; tumor volume when the tumor volume of the negative control was defined as 100% ([1]; axitinib 25 mg/kg (alone or with antibody 10 mg/kg once a week)): 27%

Question: For `CC(=O)O[C@H]1C(=O)[C@@]2(C)[C@H]([C@H](OC(=O)c3ccccc3)[C@]3(O)C[C@H](OC(=O)[C@H](O)[C@@H](NC(=O)c4ccccc4)c4ccccc4)C(C)=C1C3(C)C)[C@]1(OC(C)=O)CO[C@@H]1C[C@@H]2O` [paclitaxel], which median overall survival [2] is on record?
Answer: 7.4 months

Question: What about the median progression-free survival [2] of the same molecule?
Answer: 2.9 months

B1: anti-CAPRIN-1 humanized antibody #1: humanized IgG1 antibody with CDRs of the mouse anti-CAPRIN-1 monoclonal antibody (heavy chain SEQ ID NO: 114, light chain SEQ ID NO: 115) (antibody, listed as Mus musculus)
heavy: GPELVKPGASVKMSCKASGYTFTSYVMHWVKQKPGQGLEWIGYINPYNDGTKYNEKFKGKATLTSDKSSSTAYMELSSLTSEDSAVYYCARRYYYGSSGGYFDVWAQDHVRT
light: DVQITQSPSYLAASPGETITINCRASKSISKYLAWYQEKPGKTNKLLIYSGSTLQSGIPSRFSGSGSGTDFTLTISSLEPEDFAMYYCQQHNEYPYTFGGGTKLEIKR
Question: Which “tumor volume when the tumor volume of the negative control was defined as 100%” value [3] does the source give for B1 here?
Answer: 52%

Question: What about the “tumor volume when the tumor volume of the negative control was defined as 100%” value ([1]; antibody alone 10 mg/kg once a week) of the same molecule?
Answer: 40%

Question: And the “reactivity with the cell membrane surface of cancer cells (fluorescence intensity vs IgG control)” value [4]?
Answer: reacted strongly

Question: What about the “reactivity with the cell membrane surface of cancer cells (fluorescence intensity vs IgG control)” value [5] of the same molecule?
Answer: reacted strongly
